Consider 29 compounds from patent US6479531B1, “Gastrin and cholecystokinin receptor ligands” (James Black Foundation Limited, priority 1998, dated 2002).

This assay addresses T1, CCKB receptor (Mus musculus, UniProt P56481).
T1 construct: The whole brains from male mice (CD1 22-25 g; Charles River) were removed; from tissue; host or cells: cerebral cortex membranes of male CD1 mice
T1 sequence (P56481 1-453): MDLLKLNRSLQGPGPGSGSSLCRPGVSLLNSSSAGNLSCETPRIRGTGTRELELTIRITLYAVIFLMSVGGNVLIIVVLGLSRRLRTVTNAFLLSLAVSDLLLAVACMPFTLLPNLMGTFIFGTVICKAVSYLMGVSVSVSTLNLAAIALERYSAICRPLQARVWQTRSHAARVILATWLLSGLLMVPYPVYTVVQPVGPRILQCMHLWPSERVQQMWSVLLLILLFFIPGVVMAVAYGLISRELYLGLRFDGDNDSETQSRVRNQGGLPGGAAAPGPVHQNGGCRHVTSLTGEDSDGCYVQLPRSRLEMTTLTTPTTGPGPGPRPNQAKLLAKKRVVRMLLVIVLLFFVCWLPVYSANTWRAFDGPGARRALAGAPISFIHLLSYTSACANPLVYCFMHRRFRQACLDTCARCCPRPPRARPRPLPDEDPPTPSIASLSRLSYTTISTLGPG
In words: CCKB receptor radioligand binding assay in mouse cortical membranes. To be noted: [125I]-CCK8(S) 200 pM, 150 min at 21±3°, read-out: CCKB pKi (converted). The method, then: The compounds of the examples were tested for binding at the CCKB receptor in mouse cortical membranes by means of a radioligand binding assay. The procedure was as follows:
The whole brains from male mice (CD1 22-25 g; Charles River) were removed and placed in ice-cold buffer (pH 7.2 @ 21±3°) of the following composition (mM); 10 HEPES, 130 NaCl, 4.7 KCl, 5 MgCl2, 1 EDTA and containing 0.25 gl^−1 bacitracin. The cortex was dissected, weighed and homogenised in 40 ml ice-cold buffer using a Teflon-in-glass homogeniser. The homogenate was centrifuged at 39800 g for 20 min […], the supernatant discarded and the pellet resuspended by homogenisation in fresh buffer. The homogenate was recentrifuged (39800 g, 20 min @ 4°) and the final pellet was resuspended in HEPES buffer to give a tissue concentration of 20 mg ml^−1 (original wet weight).
The assay was terminated by rapid filtration through pre-soaked Whatman GF/B filters using a Brandell Cell Harvester. The filters were washed (3×3 ml) with ice-cold 50 mM Tris-HCl (pH 7.4 @ 4° C.) and bound radioactivity determined by counting (1 min) in a gamma-counter.

As for `O=C(Nc1cc(-c2nnn[nH]2)cc(-c2nnn[nH]2)c1)c1cc(-c2ccccc2)[nH]c1CC12CC3CC(CC(C3)C1)C2` [Example 2, 2-Adamantan-1-ylmethyl-5-phenyl-1H-pyrrole-3-carboxylic Acid [3,5-bis-(1H-tetrazol-5-yl)-phenyl]-amide], the Ki is 0.049 µM.
In the case of `O=C(O)c1cccc(NC(=O)c2cc(-c3ccccc3)[nH]c2CC23CC4CC(CC(C4)C2)C3)c1` [Example 3, 3-[(2-Adamantan-1-ylmethyl-5-phenyl-1H-pyrrole-3-carbonyl)-amino]-benzoic Acid], the Ki is 1.45 µM.
In the case of `O=C(Nc1cc(-c2nnn[nH]2)cc(-c2nnn[nH]2)c1)c1cc(-c2ccc3ccccc3c2)[nH]c1CC12CC3CC(CC(C3)C1)C2` [Example 5, 2-Adamantan-1-ylmethyl-5-naphthalen-2-yl-1H-pyrrole-3-carboxylic Acid [3,5-bis-(1H-tetrazol-5-yl)-phenyl]-amide] it was 0.229 µM; in that of `O=C(O)c1ccccc1NC(=O)c1cc(-c2ccccc2)[nH]c1CC12CC3CC(CC(C3)C1)C2` [Example 6, 2-[(2-Adamantan-1-ylmethyl-5-phenyl-1H-pyrrole-3-carbonyl)-amino]-benzoic Acid], 0.832 µM.
Take `O=C(O)c1ccc(NC(=O)c2cc(-c3ccccc3)[nH]c2CC23CC4CC(CC(C4)C2)C3)cc1` [Example 7, 4-[(2-Adamantan-1-ylmethyl-5-phenyl-1H-pyrrole-3-carbonyl)-amino]-benzoic Acid]: the Ki is 0.646 µM.
For `Cn1c(-c2ccccc2)cc(C(=O)Nc2cc(C(=O)O)cc(C(=O)O)c2)c1CC12CC3CC(CC(C3)C1)C2` [Example 8, 5-[(2-Adamantan-1-ylmethyl-1-methyl-5-phenyl-1H-pyrrole-3-carbonyl)-amino]-isophthalic Acid] the value was 1.02 µM; for `O=C(O)CCNC(=O)c1cc(-c2ccccc2)[nH]c1CC12CC3CC(CC(C3)C1)C2` [Example 10, 3-[(2-Adamantan-1-ylmethyl-5-phenyl-1H-pyrrole-3-carbonyl)-amino]-propionic Acid], 3.02 µM; for `O=C(O)c1cccc(NC(=O)c2cc(-c3ccc4ccccc4c3)[nH]c2CC2CCCCCC2)c1` [Example 14, 3-[(2-Cycloheptylmethyl-5-naphthalen-2-yl-1H-pyrrole-3-carbonyl)-amino]-benzoic Acid], 1.32 µM.
For `O=C(Nc1cc(-c2nnn[nH]2)cc(-c2nnn[nH]2)c1)c1cc(-c2ccc3ccccc3c2)[nH]c1CC1CCCCCC1` [Example 15, 2-Cycloheptylmethyl-5-naphthalen-2-yl-1H-pyrrole-3-carboxylic Acid [3,5-bis-(1H-tetrazol-5-yl)-phenyl]-amide] the value was 0.182 µM; for `O=C(Nc1cccc(-c2nnn[nH]2)c1)c1cc(-c2ccc3ccccc3c2)[nH]c1CC1CCCCCC1` [Example 16, 2-Cycloheptylmethyl-5-naphthalen-2-yl-1H-pyrrole-3-carboxylic Acid [3-(1H-tetrazol-5-yl)-phenyl]-amide], 0.724 µM; for `O=C(O)c1cc(NC(=O)c2cc(-c3ccccc3)[nH]c2CCC23CC4CC(CC(C4)C2)C3)cc(C(=O)O)c1` [Example 17, 5-{[2-(2-Adamantan-1-yl-ethyl)-5-phenyl-1H-pyrrole-3-carbonyl]-amino}-isophthalic Acid], 0.209 µM.
In the case of `O=C(Nc1cc(-c2nnn[nH]2)cc(-c2nnn[nH]2)c1)c1cc(-c2ccccc2)[nH]c1CCC12CC3CC(CC(C3)C1)C2` [Example 18, 2-(2-Adamantan-1-yl-ethyl)-5-phenyl-1H-pyrrole-3-carboxylic Acid [3,5-bis-(1H-tetrazol-5-yl)-phenyl]-amide] it was 0.229 µM.
For `O=C(O)c1cccc(NC(=O)c2cc(-c3ccccc3)[nH]c2CCC23CC4CC(CC(C4)C2)C3)c1` [Example 19, 3-{[2-(2-Adamantan-1-yl-ethyl)-5-phenyl-1H-pyrrole-3-carbonyl]-amino}-benzoic Acid], the Ki was 0.447 µM.
In the case of `O=C(O)c1cc(NC(=O)c2[nH]c(-c3ccc4ccccc4c3)nc2CC2CCCCCC2)cc(C(=O)O)c1` [Example 20, 5-[(5-Cycloheptylmethyl-2-naphthalen-2-yl-1H-imidazole-4-carbonyl)-amino]-isophthalic Acid] it was 0.251 µM.
For the compound `O=C(O)c1cccc(NC(=O)c2[nH]c(-c3ccc4ccccc4c3)nc2CC2CCCCCC2)c1` [Example 21, 3-[(5-Cycloheptylmethyl-2-naphthalen-2-yl-1H-imidazole-4-carbonyl)-amino]-benzoic Acid], the Ki was 0.813 µM.
As to `O=C(Nc1cc(CO)cc(CO)c1)c1[nH]c(-c2ccc3ccccc3c2)nc1CC1CCCCCC1` [Example 22, 5-Cycloheptylmethyl-2-naphthalen-2-yl-1H-imidazole-4-carboxylic Acid (3,5-bis-hydroxymethyl-phenyl)-amide], the Ki was 4.07 µM.
For `O=C(O)c1cc(NC(=O)c2nc(-c3cccc4ccccc34)[nH]c2CC2CCCCCC2)cc(C(=O)O)c1` [Example 23, 5-[(5-Cycloheptylmethyl-2-naphthalen-1-yl-1H-imidazole-4-carbonyl)-amino]-isophthalic Acid] the value was 1.23 µM; for `O=C(Nc1cc(-c2nnn[nH]2)cc(-c2nnn[nH]2)c1)c1nc(-c2ccccc2)[nH]c1CC1CCCCCC1` [Example 25, 5-Cycloheptyimethyl-2-phenyl-1H-imidazole-4-carboxylic Acid [3,5-bis-(1H-tetrazol-5-yl)-phenyl]-amide], 0.0692 µM.
In the case of `O=C(O)c1cc(NC(=O)c2nc(CCc3ccccc3)[nH]c2CC2CCCCCC2)cc(C(=O)O)c1` [Example 27, 5-[(5-Cycloheptylmethyl-2-(2-phenyl-ethyl)-1H-imidazole-4-carbonyl)-amino]-isophthalic Acid] it was 3.55 µM.
For `COc1cccc(-c2nc(C(=O)Nc3cc(C(=O)O)cc(C(=O)O)c3)c(CC3CCCCCC3)[nH]2)c1` [Example 28, 5-[(5-Cycloheptylmethyl-2-(3-methoxy-phenyl)-1H-imidazole-4-carbonyl)-amino]-isophthalic Acid] the value was 1.23 µM.
In the case of `COc1ccc(-c2nc(C(=O)Nc3cc(C(=O)O)cc(C(=O)O)c3)c(CC3CCCCCC3)[nH]2)cc1` [Example 29, 5-[(5-Cycloheptylmethyl-2-(4-methoxy-phenyl)-1H-imidazole-4-carbonyl)-amino]-isophthalic Acid], the Ki was 1.48 µM.
In the case of `O=C(O)c1cc(NC(=O)c2[nH]c(-c3ccc4[nH]ccc4c3)nc2CC2CCCCCC2)cc(C(=O)O)c1` [Example 30, 5-[(5-Cycloheptylmethyl-2-(1H-indol-5-yl)-1H-imidazole-4-carbonyl)-amino]-isophthalic Acid] it was 1.07 µM; in that of `CN(C)c1ccc(-c2nc(C(=O)Nc3cc(C(=O)O)cc(C(=O)O)c3)c(CC3CCCCCC3)[nH]2)cc1` [Example 31, 5-[(5-Cycloheptylmethyl-2-(4-dimethylamino-phenyl)-1H-imidazole-4-carbonyl)-amino]-isophthalic Acid], 1.66 µM.
In the case of `O=C(O)c1cc(NC(=O)c2nc(-c3cccnc3)[nH]c2CC2CCCCCC2)cc(C(=O)O)c1` [Example 32, 5-[(5-Cycloheptylmethyl-2-pyridin-3-yl-1H-imidazole-4-carbonyl)-amino]-isophthalic Acid] it was 4.79 µM; in that of `O=C(O)c1cc(NC(=O)c2nc(-c3ccc[nH]3)[nH]c2CC2CCCCCC2)cc(C(=O)O)c1` [Example 33, 5-[(5-Cycloheptylmethyl-2-(1H-pyrrol-2-yl)-1H-imidazole-4-carbonyl)-amino]-isophthalic Acid], 1.86 µM; in that of `O=C(O)c1cc(NC(=O)c2nc(C3CCCCC3)[nH]c2CC2CCCCCC2)cc(C(=O)O)c1` [Example 34, 5-[(5-Cycloheptylmethyl-2-cyclohexyl-1H-imidazole-4-carbonyl)-amino]-isophthalic Acid], 1.58 µM.
In the case of `O=C(O)c1cc(NC(=O)c2nc[nH]c2CC2CCCCCC2)cc(C(=O)O)c1` [Example 35, 5-[(5-Cycloheptylmethyl-1H-imidazole-4-carbonyl)-amino]-isophthalic Acid] it was 3.89 µM; in that of `O=C(O)c1cc(NC(=O)c2ncn(Cc3ccccc3)c2CC2CCCCCC2)cc(C(=O)O)c1` [Example 36, 5-[(1-Benzyl-5-cycloheptylmethyl-1H-imidazole-4-carbonyl)-amino]-isophthalic Acid], 3.16 µM; in that of `O=C(O)c1cccc(NC(=O)c2nc(-c3ccccc3)[nH]c2CCC2CCCCCC2)c1` [Example 38, 3-{[5-(2-Cycloheptyl-ethyl)-2-phenyl-1H-imidazole-4-carbonyl]-amino}-benzoic Acid], 1.12 µM.
